The nature of one series: Maximum tolerated dose. The settings on record: mouse, in vivo; mice. From the text: The in vitro studies reported in Table 11 illustrate the structure requirements necessary for biological activity. Modifications of the A ring have shown that the methoxy groups can be replaced by alkoxy or alkyl (28,31a,32a) whilst retaining their ability to inhibit assembly of isolated tubulin. Similarly, molecules with alkyl substituents on the ethene bridge (19,20,46) retain activity both as inhibitors of tubulin assembly and are growth inhibitory in vitro. The pharmacophore consists of a stilbene in a cis configuration with a small alkyl or O-alkyl substituent at the 4-position of the B ring. […] These agents show good activity in the shape-change (permeability) assay. This test is used as an in vitro assay of vascular damage. […] 97–64H was given at either ⅔ of the maximum tolerated dose (MTD=200 mg/kg) or at ¾ of the MTD to mice bearing liver metastatic T50:80 tumours. Tumours were removed and examined for evidence of vascular damage at 2 hr and 4 hr following drug administration. Similarly a dose equivalent to ¾ of the MTD was administered and the tumours examined 24 hr and 48 hr following administration of drug. […] These effects are seen within 2 hours.

The subject of series [1] is P388 murine leukaemia cell line. Description: Cytotoxicity/growth inhibition assay (MTT), P388. As to conditions: MTT. Type of series: cell-based. In a few lines: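 Growth inhibition of P388 murine and K562 human leukaemia cells measured by MTT assay.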
For another series, the system named is HUVEC. Nature of the series: Growth inhibition studies using HUVEC. It counts as cell-based, human. The method, boiled down:
(§1)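 MTT cytotoxicity/growth-inhibition assay in human cell lines including A2780, A2780/ADR, H460 and HUVEC.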

For another series, the system named is A2780. Nature of the series: Cytotoxicity/growth inhibition assay (MTT), A2780. As to conditions: read-out: A2780 IC50. It counts as cell-based. In a few lines: as §1
A short description of series [2]: Pharmacokinetic profile in mice. Type of series: in vivo. As to conditions: 200 mg/kg.

The term MTD denotes the highest dose tested that stayed within the study's limit of toxicity. Higher therefore signals a wide tolerated range. The term IC50 denotes the concentration that gives 50% inhibition. One may read the Cmax as the maximum level reached in the sampled fluid or tissue. As usually defined, the half-life is how long it takes for the measured level to halve. Take `COc1ccc(C=Cc2cc(OC)c(OC)c(OC)c2)cc1F` [Compound 97-64H]: in “Maximum tolerated dose”, the MTD amounted to 200 mg/kg. Besides, the IC50 is 0.489 nM in series [1]; 2.4 nM in the series with HUVEC (Homo sapiens, HUVEC); 3.66 nM in the series on A2780. In the series with HUVEC, the “concentration necessary to inhibit the growth of HUVEC cells in vitro” value is 0.001 mM. Besides, the Cmax in series [2] (mouse, in vivo, po) came out at 1.49 µg/mL. Besides, the half-life in series [2] (mouse, in vivo, po, absorption half life) worked out at 15 min; in series [2] (mouse, in vivo, po, elimination half life), 32 min. In addition, the “concentration achieved in vivo” value in series [2] (oral) amounted to 1490 µg/mL. Moreover, the “concentration achieved in vivo (molar)” value in series [2] (oral) turned out to be 4600 µM.

(Values after patent US7220784B2, “Substituted stilbenes and their reactions” (priority 2000, dated 2007).)
